According to US8653304B2, “2,3-dihydro-1H-indene-2-yl urea derivative and pharmaceutical application of same” (Toray Industries, Inc., priority 2009, dated 2014):

Experiments:
[1] = system: hyperalgesia in Bennett model; assay: Hyperalgesia in neuropathic pain model (Bennett model), plantar test; assay type: in vivo; conditions: SD rat, Bennett model day 14, oral 100 mg/kg, 90 minutes after administration; FIG. 2
From the text: (§1) The action of Compound (I) on hyperalgesia in pain models was studied. As the pain models, models partially modified from an inflammatory pain model (a carrageenin paw edema pain model) and neuropathic pain models (Bennett model and Chung model) described in documents (Anesth. Analg., 2009, Vol. 108, pp. 1680-1687; Pain, 1988, Vol. 33, pp. 87-107; and Pain, 1992, Vol. 50, pp. 355-363) were used.
The Bennett model was produced by lightly ligating the sciatic nerve in the left thigh of each Crl:CD (SD) rat (male, 6-week old, Charles River Laboratories Japan, Inc.) at 4 points with chromic catgut (4-0). Fourteen days after the Bennett model was produced, each test compound was orally administered, and plantar test was performed 90 minutes after the administration. The plantar test was carried out by measuring the pain threshold (sec) of the left footpad (model foot) using a plantar thermal stimulation device (Plantar test 7370, Ugo Basile) wherein the thermal stimulus intensity was set to 60. Each test compound was suspended in 0.5 w/v % methylcellulose (Wako Pure Chemical Industries, Ltd.) and the obtained solution was orally administered. Compound 46b described in the Examples was administered at a dose of 100 mg/kg, and gabapentin (Toronto Research Chemicals), which is an anticonvulsant, was administered as a comparative control agent at a dose of 100 mg/kg.

[2] = system: TNFα production; assay: Cytokine production suppressing activity using human whole blood (LPS stimulation); assay type: cell-based; conditions: LPS 200 ng/mL, 37° C., 5 hours
Description: Using human whole blood, the inhibitory action of Compound (I) on the TNFα production by LPS stimulation was studied by a method partially modified from the method described in Journal of Medicinal Chemistry (2003, Vol. 46, pp. 4676-4686).
A solution of each test compound in 100% DMSO and human blood were mixed in a 96-well flat-bottom plate. Thereafter, LPS (Final Concentration: 200 ng/mL) was added, and the resulting mixture was allowed to react at 37° C. for 5 hours (the final concentration of DMSO was 0.2%). After the reaction, the resultant was centrifuged for 20 minutes at room temperature, and the supernatant was collected. For the measurement of the TNFα amount in the supernatant, a human cytokine kit (CIS bio international) was used. As a comparative control compound, Comparative Compound 2 was used.

[3] = system: colonic disorders in TNBS-induced colitis model; assay: Colonic disorders in TNBS-induced colitis model; assay type: in vivo; conditions: Wistar rat, oral 3 mg/kg once on TNBS day then twice a day for 4 days, colon 5 days after TNBS
From the text: The action of Compound (I) on colonic disorders in inflammatory bowel disease models was studied. As the inflammatory bowel disease models, models partially modified from a TNBS-induced colitis model and a DSS-induced chronic colitis model described in documents (Gastroenterology, 1989, Vol. 96, pp. 29-36 and Am. J. Physiol. Gastrointest. Liver Physiol., 2004, Vol. 287, pp. G115-124) were used.
To each Slc:Wistar rat (male, 12-week old, Japan SLC, Inc.), TNBS (Wako Pure Chemical Industries, Ltd.) dissolved in ethanol was rectally administered under anesthesia, and the TNBS solution was held in the rectum for 1 hour to produce the colitis model. These rats had been fasted from 2 days before the TNBS administration to the day of the TNBS administration. Five days after the TNBS administration, the colon was isolated from the each rat, and the macroscopic damage score (which is a total of adhesion score, diarrhea score and ulcer score) was recorded as an index of damage in the colon. The macroscopic damage score was calculated based on the scores of Dubigeon et al. (Eur. J. Pharmacol., 2001, Vol. 431, pp. 103-110) and the scores of Venkova et al. (J. Pharmacol. Exp. Ther., 2004, Vol. 308, pp. 206-213). […]

[4] = system: hyperalgesia in carrageenin paw edema pain model; assay: Hyperalgesia in inflammatory pain model (carrageenin paw edema pain model); assay type: in vivo; conditions: SD rat, oral 100 mg/kg 30 minutes before carrageenin, measured 90 minutes after carrageenin; FIG. 1
From the text: as §1
To the footpad of the left hind limb of each Crl:CD (SD) rat (male, 6-week old, Charles River Laboratories Japan, Inc.), an 1 w/v % suspension of carrageenin (Zushi Kagaku Laboratory, Inc.) in physiological saline was subcutaneously administered at 0.1 mL/body to produce the carrageenin paw edema pain model. Ninety minutes after the administration of the 1 w/v % suspension of carrageenin in physiological saline, the pain threshold (mmHg) of the footpad of the left hind limb was measured using Analgesy Meter (TK-201, Unicom) wherein the stimulating pressure was set so as to rise from 0 mmHg to 100 mmHg for 10 seconds. Each test compound was suspended in 0.5 w/v % methylcellulose (Wako Pure Chemical Industries, Ltd.), and the obtained solution was orally administered 30 minutes before the administration of the 1 w/v % suspension of carrageenin in physiological saline. […]

[5] = Pharmacokinetic evaluation in mouse (oral); assay type: in vivo; conditions: male; BALB/c mouse, oral 0.8 mg/kg, plasma
Description: Each test compound was dissolved in 10% HP-β-CD (Nihon Shokuhin Kako Co., Ltd.) to prepare a solution to be administered (0.08 mg/mL, as a solution to be administered for oral administration). To each BALB/c mouse (male, 7-week old, Charles River Laboratories Japan, Inc.), each compound was orally administered at a dose of 0.8 mg/kg. Blood was collected from the jugular vein or heart with time up to 24 hours after the administration. The obtained blood was centrifuged to collect blood plasma. The blood plasma was pretreated by methanol extraction method, and the concentration of the compound was analyzed by LC/MS/MS (ESI positive mode).
In this table, Cmax represents a maximum plasma concentration; and AUC0-∞ represents an area under the curve of the plasma concentration of the compound from after the compound administration to infinite time.

COc1c(NC(=O)N[C@@H]2Cc3ccccc3[C@@H]2O)cc(C(C)(C)C)cc1[C@@H](O)C(F)(F)F [Compound 46b, 1-(5-tert-butyl-2-methoxy-3-((R)-2,2,2-trifluoro-1-hydroxyethyl)phenyl)-3-((1S,2R)-1-hydroxy-2,3-dihydro-1H-indene-2-yl)urea]
pain threshold (sec), plantar test, compared to solvent-administered group [1]: significantly elevated | IC50 [2]: 508 nM | macroscopic damage score [3]: 3.3±0.7 | pain threshold (mmHg) compared to solvent-administered group [4]: significantly elevated | AUC(0-inf) [5]: 588 ng·h/mL | Cmax [5]: 561 ng/mL
